Results reported in patent US9682141B2, “Combination of kinase inhibitors and uses thereof” (INTELLIKINE LLC, priority 2011, dated 2017).
Each block holds one molecule with its values, some of them ahead of it.

How the values were obtained:
[1] = target: PI3K δ (Homo sapiens (Human), UniProt O00329); assay: PI 3-Kinase (human) HTRF assay, p110δ/p85α; type: biochemical
[2] = target: PI3K β (Homo sapiens (Human), UniProt P42338); assay: PI 3-Kinase (human) HTRF assay, p110β/p85α; type: biochemical
PI3K β, sequence (P42338 whole entry): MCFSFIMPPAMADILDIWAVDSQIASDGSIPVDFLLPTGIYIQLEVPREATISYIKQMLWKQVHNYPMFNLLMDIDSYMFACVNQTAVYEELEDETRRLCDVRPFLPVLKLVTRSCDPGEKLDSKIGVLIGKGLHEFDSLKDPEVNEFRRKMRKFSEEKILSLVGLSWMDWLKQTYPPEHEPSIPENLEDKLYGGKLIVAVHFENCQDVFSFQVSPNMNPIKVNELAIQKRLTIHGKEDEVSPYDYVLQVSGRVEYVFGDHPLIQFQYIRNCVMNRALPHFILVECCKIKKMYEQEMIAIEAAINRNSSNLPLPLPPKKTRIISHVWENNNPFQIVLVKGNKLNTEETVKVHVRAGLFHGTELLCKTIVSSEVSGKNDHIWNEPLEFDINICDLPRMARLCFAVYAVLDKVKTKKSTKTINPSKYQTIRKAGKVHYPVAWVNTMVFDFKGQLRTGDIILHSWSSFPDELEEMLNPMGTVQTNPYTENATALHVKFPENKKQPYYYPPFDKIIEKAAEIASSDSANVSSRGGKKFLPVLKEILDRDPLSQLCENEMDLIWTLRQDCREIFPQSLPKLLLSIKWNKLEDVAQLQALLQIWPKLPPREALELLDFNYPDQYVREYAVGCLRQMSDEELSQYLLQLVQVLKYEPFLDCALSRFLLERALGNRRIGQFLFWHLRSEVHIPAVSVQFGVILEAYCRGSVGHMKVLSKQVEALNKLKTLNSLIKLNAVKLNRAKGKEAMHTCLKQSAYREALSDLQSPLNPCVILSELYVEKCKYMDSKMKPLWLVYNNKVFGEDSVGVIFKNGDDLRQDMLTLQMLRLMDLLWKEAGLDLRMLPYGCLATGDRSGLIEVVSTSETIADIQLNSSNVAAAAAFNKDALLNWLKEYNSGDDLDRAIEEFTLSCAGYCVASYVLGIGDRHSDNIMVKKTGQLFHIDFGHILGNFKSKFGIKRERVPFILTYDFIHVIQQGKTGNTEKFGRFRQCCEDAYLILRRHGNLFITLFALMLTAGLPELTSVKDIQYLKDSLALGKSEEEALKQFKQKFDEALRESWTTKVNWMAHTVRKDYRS
PI3K β, sequence (P27986 whole entry partner): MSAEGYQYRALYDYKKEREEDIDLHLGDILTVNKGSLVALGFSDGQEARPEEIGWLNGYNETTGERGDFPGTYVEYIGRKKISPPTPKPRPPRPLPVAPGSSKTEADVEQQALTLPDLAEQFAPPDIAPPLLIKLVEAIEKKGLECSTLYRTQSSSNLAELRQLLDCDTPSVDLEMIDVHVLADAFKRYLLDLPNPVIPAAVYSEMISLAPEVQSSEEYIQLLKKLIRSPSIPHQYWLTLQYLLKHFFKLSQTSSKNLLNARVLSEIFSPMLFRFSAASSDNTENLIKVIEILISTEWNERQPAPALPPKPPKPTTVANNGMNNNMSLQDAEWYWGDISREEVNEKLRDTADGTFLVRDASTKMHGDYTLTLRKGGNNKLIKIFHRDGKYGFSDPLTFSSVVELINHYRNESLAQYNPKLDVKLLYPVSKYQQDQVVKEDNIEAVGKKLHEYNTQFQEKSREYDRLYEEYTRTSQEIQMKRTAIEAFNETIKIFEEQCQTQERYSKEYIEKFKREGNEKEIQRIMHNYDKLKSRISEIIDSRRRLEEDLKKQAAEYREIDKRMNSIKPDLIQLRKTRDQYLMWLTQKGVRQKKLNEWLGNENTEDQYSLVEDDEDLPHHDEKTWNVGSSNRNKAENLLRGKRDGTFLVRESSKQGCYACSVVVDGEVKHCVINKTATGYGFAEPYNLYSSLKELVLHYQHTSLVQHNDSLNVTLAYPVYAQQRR

[3] = test system: T47D cells; assay: T47D proliferation; type: cell-based; settings: Homo sapiens
[4] = target: PI3K α (Homo sapiens (Human), UniProt P42336); assay: PI 3-Kinase (human) HTRF assay, p110α/p85α; type: biochemical
PI3K α, sequence (P42336 whole entry): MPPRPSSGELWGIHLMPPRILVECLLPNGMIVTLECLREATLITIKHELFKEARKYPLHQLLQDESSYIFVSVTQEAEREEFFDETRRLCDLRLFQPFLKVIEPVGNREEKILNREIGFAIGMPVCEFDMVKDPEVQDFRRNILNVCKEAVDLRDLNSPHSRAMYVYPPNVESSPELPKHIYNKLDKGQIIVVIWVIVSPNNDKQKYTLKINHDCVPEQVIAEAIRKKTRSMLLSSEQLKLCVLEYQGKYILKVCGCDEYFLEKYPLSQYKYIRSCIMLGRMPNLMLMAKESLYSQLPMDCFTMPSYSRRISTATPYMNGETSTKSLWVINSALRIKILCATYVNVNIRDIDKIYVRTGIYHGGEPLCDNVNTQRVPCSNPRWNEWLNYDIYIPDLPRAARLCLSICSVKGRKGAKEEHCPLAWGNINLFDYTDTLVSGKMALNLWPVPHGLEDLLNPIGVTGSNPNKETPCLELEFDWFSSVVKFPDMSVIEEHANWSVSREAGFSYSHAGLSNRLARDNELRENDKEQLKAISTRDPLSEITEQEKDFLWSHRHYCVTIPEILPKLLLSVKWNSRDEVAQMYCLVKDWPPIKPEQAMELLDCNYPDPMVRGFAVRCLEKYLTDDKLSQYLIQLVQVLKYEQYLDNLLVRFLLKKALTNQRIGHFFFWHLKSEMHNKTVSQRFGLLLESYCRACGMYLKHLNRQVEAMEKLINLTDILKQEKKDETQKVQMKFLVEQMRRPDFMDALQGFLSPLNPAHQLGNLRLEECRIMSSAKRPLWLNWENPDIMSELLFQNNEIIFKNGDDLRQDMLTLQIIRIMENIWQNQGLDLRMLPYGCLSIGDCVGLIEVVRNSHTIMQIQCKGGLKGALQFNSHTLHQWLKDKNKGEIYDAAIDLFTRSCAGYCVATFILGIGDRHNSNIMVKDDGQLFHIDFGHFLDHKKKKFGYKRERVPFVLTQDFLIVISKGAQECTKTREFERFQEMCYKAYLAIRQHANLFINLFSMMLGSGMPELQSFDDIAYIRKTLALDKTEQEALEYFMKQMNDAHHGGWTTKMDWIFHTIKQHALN
PI3K α, sequence (P27986 whole entry partner): as the sequence (P27986 whole entry partner) above

[5] = target: PI3K γ (Homo sapiens (Human), UniProt P48736); assay: PI 3-Kinase (human) HTRF assay, p110γ; type: biochemical; settings: read-out: PI3K γ IC50
PI3K γ, sequence (P48736 whole entry): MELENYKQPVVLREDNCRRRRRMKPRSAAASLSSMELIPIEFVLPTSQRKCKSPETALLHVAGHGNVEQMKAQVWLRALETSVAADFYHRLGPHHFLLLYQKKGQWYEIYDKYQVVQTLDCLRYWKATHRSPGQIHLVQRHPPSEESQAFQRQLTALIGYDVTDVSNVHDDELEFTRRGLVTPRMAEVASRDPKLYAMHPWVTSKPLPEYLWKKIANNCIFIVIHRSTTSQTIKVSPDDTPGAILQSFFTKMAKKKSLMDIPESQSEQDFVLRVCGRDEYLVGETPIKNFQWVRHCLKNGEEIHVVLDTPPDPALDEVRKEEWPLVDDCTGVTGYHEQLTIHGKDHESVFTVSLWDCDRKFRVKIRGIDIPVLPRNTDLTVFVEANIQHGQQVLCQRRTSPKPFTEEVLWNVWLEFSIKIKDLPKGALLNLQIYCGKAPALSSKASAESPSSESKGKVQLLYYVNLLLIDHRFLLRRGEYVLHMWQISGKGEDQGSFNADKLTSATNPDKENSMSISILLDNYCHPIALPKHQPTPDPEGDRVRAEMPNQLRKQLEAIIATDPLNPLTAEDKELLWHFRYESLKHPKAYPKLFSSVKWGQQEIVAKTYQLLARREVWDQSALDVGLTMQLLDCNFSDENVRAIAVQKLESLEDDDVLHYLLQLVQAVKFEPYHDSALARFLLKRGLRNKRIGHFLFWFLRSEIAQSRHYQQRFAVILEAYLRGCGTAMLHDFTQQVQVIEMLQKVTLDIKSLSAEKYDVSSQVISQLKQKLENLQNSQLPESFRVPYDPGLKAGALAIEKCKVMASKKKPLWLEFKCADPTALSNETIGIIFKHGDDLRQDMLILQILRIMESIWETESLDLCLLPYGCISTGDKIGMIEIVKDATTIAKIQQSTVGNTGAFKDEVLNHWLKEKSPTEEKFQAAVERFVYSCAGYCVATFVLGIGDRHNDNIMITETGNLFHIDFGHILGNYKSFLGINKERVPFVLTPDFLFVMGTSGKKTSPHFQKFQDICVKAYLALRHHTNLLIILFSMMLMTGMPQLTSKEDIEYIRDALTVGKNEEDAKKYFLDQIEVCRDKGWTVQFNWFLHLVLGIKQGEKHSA

[6] = test system: anti-TNP antibody production; assay: TNP-Ficoll T-cell independent B-cell activation assay; type: in vivo, mouse; settings: mice immunized with TNP-Ficoll; 70 mg/kg GDC0941; 30, 60, 120 mg/kg Compound A; 7 days
Protocol: To test the effects of the compounds of the present invention in suppressing T cell independent antibody production, the TNP-Ficoll B-cell activation assay is used as described herein. Compounds of the present invention are dissolved in an appropriate vehicle (e.g. 5% 1-methyl-2-pyrrolidinone, 85% polyethylene glycol 400, 10% Solutor). Compounds are administered orally approximately 1 hr before TNP-Ficoll treatment to 4-10 week old mice. To study the effects of the compounds on B-cell activation, one set of mice are grouped according to the following table:
Four animals in group 1, and eight animals in groups 2 to 7 are euthanized in CO2 2 hours after the last compound administration on day 7. […]
Serum samples are analyzed for anti-TNP antibody titers by ELISA as described herein. […] HRP substrate (200 μl ABTS solution+30% H2O2+10 ml citrate buffer) is added to each well at 100 μl/well, incubated 2-20 minutes in the dark and the amount of anti-TNP IgG3 is determined spectrophotometrically at 405 nm. Similarly, anti-TNP IgM and total anti-TNP Ab are determined using anti-mouse IgM-HRP and anti-mouse Ig-HRP respectively.
Antibody production was measured using ELISA and plotted as as a percentage of control group that were treated with vehicle.

[7] = test system: MDA-MB-361 tumors; assay: Xenogenic mouse model of breast cancer (MDA-MB-361); type: in vivo; settings: 70 mg/kg Pan-PI3K inhibitor, 60 mg/kg Compound A
[8] = test system: marginal zone B cells; assay: Marginal zone B cells in mouse spleen (FACS); type: in vivo; settings: 70 mg/kg Pan-PI3K inhibitor, 60 mg/kg Compound A; spleens harvested 2 hrs after last dose
[9] = PBS pH 7.4, 37° C., 24 hours, 5 μM reference compound; cited from earlier work
[10] = target: mTORC (Homo sapiens (Human), UniProt P42345); assay: mTOR inhibition assay (radiometric or LanthaScreen TR-FRET); type: biochemical
[11] = control or reference compound, 5 μM; cited from earlier work
[12] = test system: PI3K/Akt/mTor signaling in blood cells; assay: Kinase signaling in blood (phosflow); type: cell-based; settings: anti-CD3 stimulated splenocytes or PBMC
Protocol: PI3K/Akt/mTor signaling is measured in blood cells using the phosflow method (Methods Enzymol. 2007; 434:131-54). The advantage of this method is that it is by nature a single cell assay so that cellular heterogeneity can be detected rather than population averages. This allows concurrent dinstinction of signaling states in different populations defined by other markers. Phosflow is also highly quantitative. To test the effects of one or more compounds disclosed herein, unfractionated splenocytes, or peripheral blood mononuclear cells are stimulated with anti-CD3 to initiate T-cell receptor signaling. The cells are then fixed and stained for surface markers and intracellular phosphoproteins.
Similarly, aliquots of whole blood are incubated for 15 minutes with vehicle (e.g., 0.1% DMSO) or kinase inhibitors at various concentrations, before addition of stimuli to crosslink the T cell receptor (TCR) (anti-CD3 with secondary antibody) or the B cell receptor (BCR) using anti-kappa light chain antibody (Fab′2 fragments). After approximately 5 and 15 minutes, samples are fixed (e.g., with cold 4% paraformaldehyde) and used for phosflow. […] The level of phosphrylation of kinase substrates such as Akt and S6 are then measured by incubating the fixed cells with labeled antibodies specific to the phosphorylated isoforms of these proteins. The population of cells is then analyzed by flow cytometry.

PI3K δ, sequence (O00329 whole entry): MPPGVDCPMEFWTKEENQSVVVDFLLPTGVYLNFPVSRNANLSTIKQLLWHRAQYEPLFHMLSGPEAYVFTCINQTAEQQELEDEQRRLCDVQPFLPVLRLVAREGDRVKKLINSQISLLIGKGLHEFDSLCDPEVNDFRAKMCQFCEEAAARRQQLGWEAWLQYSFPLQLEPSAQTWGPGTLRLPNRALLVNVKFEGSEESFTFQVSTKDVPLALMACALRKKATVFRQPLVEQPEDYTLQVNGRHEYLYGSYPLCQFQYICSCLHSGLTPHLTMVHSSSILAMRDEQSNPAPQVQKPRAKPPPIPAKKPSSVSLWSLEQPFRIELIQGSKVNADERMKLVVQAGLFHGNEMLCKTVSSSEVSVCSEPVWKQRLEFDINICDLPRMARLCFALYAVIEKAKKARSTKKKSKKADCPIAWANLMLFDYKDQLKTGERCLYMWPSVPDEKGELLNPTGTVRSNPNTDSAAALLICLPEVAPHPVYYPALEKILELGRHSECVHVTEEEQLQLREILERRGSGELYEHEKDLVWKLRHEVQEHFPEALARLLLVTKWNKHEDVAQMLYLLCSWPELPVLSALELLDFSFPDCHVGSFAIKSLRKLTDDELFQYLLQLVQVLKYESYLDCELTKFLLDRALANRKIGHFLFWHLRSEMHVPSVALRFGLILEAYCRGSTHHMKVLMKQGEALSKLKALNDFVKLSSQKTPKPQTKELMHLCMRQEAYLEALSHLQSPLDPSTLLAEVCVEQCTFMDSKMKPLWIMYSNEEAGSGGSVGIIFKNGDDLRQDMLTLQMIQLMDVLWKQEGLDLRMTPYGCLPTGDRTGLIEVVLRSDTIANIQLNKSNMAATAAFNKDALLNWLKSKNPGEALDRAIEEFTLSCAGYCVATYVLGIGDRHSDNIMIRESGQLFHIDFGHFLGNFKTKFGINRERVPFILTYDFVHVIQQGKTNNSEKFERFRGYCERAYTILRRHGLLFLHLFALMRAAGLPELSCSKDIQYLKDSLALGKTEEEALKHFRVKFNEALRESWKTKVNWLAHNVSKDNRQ
PI3K δ, sequence (P27986 whole entry partner): as the sequence (P27986 whole entry partner) above

IC50 [1]: < 1 µM
IC50 [2]: < 10 µM
IC50 [3]: < 10 µM
IC50 [4]: < 0.1 µM
IC50 [5]: < 0.1 µM
Compound: Nc1nc2cc(-c3ccc4ncc(C(=O)NC5CC5)n4c3)ccc2o1

B cell function in vivo (antibody production, % of vehicle control) [6]: blocks B cell function in vivo
presence of MZB cells in mouse spleen [8]: reduced presence of MZB cells
Compound: CS(=O)(=O)N1CCN(Cc2cc3nc(-c4cccc5[nH]ncc45)nc(N4CCOCC4)c3s2)CC1 [Pan-PI3K inhibitor, GDC0941]
reduction in tumor weight [7]: reduction in tumor weight

Compound: O=C(O)CCCc1ccc(N(CCCl)CCCl)cc1 [chlorambucil, 4-[bis(2-chloroethyl)amino]benzenebutanoic acid]
chemical stability [9]: largely hydrolyzed over the course of 24 hours

Compound: CN1CCN(C(=O)C2CN(c3cnc4ccc(-c5ccc6oc(N)nc6c5)cc4n3)C2)CC1 [drawing 360]
IC50 [1]: < 1 µM
IC50 [2]: < 1 µM
IC50 [4]: < 0.1 µM
IC50 [10]: < 10 µM
IC50 [5]: < 10 µM

Compound: CC(C)[N+](C)(CCOC(=O)C1c2ccccc2Oc2ccccc21)C(C)C [propantheline]
plasma stability [11]: intermediate plasma stability

Compound: CCCOc1cc(N)ccc1C(=O)OCCN(CC)CC [propoxycaine]
plasma stability [11]: low plasma stability

Compound: CO[C@H]1C[C@@H]2CC[C@@H](C)[C@@](O)(O2)C(=O)C(=O)N2CCCC[C@H]2C(=O)O[C@H]([C@H](C)C[C@@H]2CC[C@@H](O)[C@H](OC)C2)CC(=O)[C@H](C)/C=C(\C)[C@@H](O)[C@@H](OC)C(=O)[C@H](C)C[C@H](C)/C=C/C=C/C=C/1C [rapamycin]
Akt phosphorylation [12]: enhances Akt phosphorylation
S6 phosphorylation [12]: inhibits S6 phosphorylation
